The numbers were not newly measured in patent US11350648B2, “Compositions and related methods for agriculture” (priority 2017, dated 2022), which cites them from elsewhere.

This data set relates to gram-negative and gram-positive bacteria as well as fungi.

Take “NCR335: cationic NCR peptide (RQMIILRLNTTFRPLNFKMLRFWGQN)”: the antimicrobial activity entry was “effective against gram-negative and gram-positive bacteria as well as fungi”.
